# Like-named read-outs stand apart in the source and are kept apart here.
# Columns and labels:
# MDA NQ01 cell extract = assay: Cell lysate esterase reaction, MDA NQ01 cell extract; format: in vitro ADME, human
# Excerpt: (§1) The cleavage of Es5 by esterase and cell extracts and its activation were investigated.
# (§2) The degradation of Es5 by esterases from cell lysate of the two cell lines MDA NQ01 and MDA468 was investigated.
# esterases = assay: as above; format: in vitro ADME, human; settings: human, MDA NQ01 cell line extract (cell lysate)
# Excerpt: as §1, §2
# MDA468 = assay: IC50 by MTT assay on MDA468 cells; format: cell-based, human
# [1] = tested on: DT-diaphorase null MDA 468 cells; assay: Apoptosis by Annexin V binding, DT-diaphorase null MDA 468 cells; format: cell-based, human
# Procedure: Based on the method described in Martin et al. (Journal of Experimental Medicine. 182, 1545-1556. 1995), the induction of apoptosis caused by the compounds of the present invention was determined.
# [2] = tested on: DT-diaphorase null MDA468; assay: DNA damage, Comet assay, DT-diaphorase null MDA468 cells; format: cell-based, human
# Procedure: DNA damage was measured using the Comet assay to investigate the effect of Es5 on the comet head and tail intensities following treatment of MDA468NQ01 and the DT-diaphorase null MDA468 cell lines. […] Without wishing to be bound by any particular theory, the inventors believe that this must arise by a different mechanism such as 2×one electron reductions, rather than the 2 electron reduction that occurs with DT-diaphorase.
compound,measurement,setting,value
"CC(=O)OCCCC1=C(N2CC2)C(=O)C(C)=C(N2CC2)C1=O [Es5, Acetic Acid 3-(2,5-bis-aziridin-1-yl-4-methyl-3,6-dioxo-cyclohexa-1,4-dienyl)-propyl ester]","Degradation by MDA NQ01 cell extract, rate","MDA NQ01 cell extract; human, MDA NQ01 cell line extract (cell lysate)",(11.25 nmoles/hr/10^6 nmoles/hr/10^6 cells
same,cleavage of the ester by MDA468 NQ01 cell extract,MDA NQ01 cell extract; in words,rapidly cleaved
same,half-life,"esterases; Degradation by MDA NQ01 cell extract, t1/2",2.67 h
same,half-life,"esterases; room temperature, degraded to the alcohol 4.61, read-out: half-life in MDA NQ01 cell line extract",~2.67 h
same,half-life,physchem,< 24 h
same,IC50,MDA468; Homo sapiens,0.025 µM
same,IC50,MDA468; listed as Es5 (4.65),0.02 to 0.025 µM
same,apoptosis (Annexin V binding) at 2 hours,[1]; 2 hours,no death is seen
same,apoptosis (Annexin V binding) after 4 hrs,[1]; after 4 hrs,reduced level of apoptosis
same,Comet assay tail intensity (DNA cross-linking),"[2]; DT-diaphorase deficient cell line, compared to H2O2 alone",did not reduce tail intensity
same,"Comet assay, DNA cross-linking after 6 hours of incubation","[2]; DT-diaphorase null cell line, 6 hours",evidence of cross-linking

# Source: US9266829B2, “Quinone compounds and their uses for the treatment of cancer” (Onco-NX Limited, priority 2012, dated 2016)
